# In ChEMBL document CHEMBL2331107, “Novel fluorescent risedronates: synthesis, photodynamic inactivation and imaging of Bacillus subtilis” (2013):
# Activity calls are given as the source filed them. No cut-off for these calls is given here.
# Columns and labels:
# [1] = test system: Bacillus subtilis; assay: Antimicrobial activity against Bacillus subtilis ATCC 6633 measured after 24 hrs at 37 degC; assay type: functional; conditions: ATCC 6633, 24 h
# [2] = test system: Bacillus subtilis; assay: Antimicrobial activity against Bacillus subtilis ATCC 6633 assessed as photodynamic inactivation measured as lethality at 10 uM; assay type: functional
Compound,MIC [1],Activity [2]
O=C(NCC(O)C[n+]1cccc(CC(O)(P(=O)(O)O)P(=O)(O)O)c1)c1ccccc1O (stereo not drawn),> 128 µg/mL,–
O=C(NCC(O)C[n+]1cccc(CC(O)(P(=O)(O)O)P(=O)(O)O)c1)c1ccccc1 (stereo not drawn),> 128 µg/mL,–
O=C(NCC(O)C[n+]1cccc(CC(O)(P(=O)(O)O)P(=O)(O)O)c1)c1cc2ccccc2oc1=O (stereo not drawn),> 128 µg/mL,91%
O=C(O)c1cc2c(ccc3ccccc32)oc1=O,–,inactive
O=C(NCC(O)C[n+]1cccc(CC(O)(P(=O)(O)O)P(=O)(O)O)c1)c1cc2c(ccc3ccccc32)oc1=O (stereo not drawn),> 128 µg/mL,47%
O=C(O)c1cc2ccccc2oc1=O,–,inactive
